pKd: −log10 of the molar value. The source made the active and inactive calls. No cut-off for these calls is given here.
How the values were obtained:
Rattus norvegicus [1] = test: Antinociceptive activity in icv dosed Rattus norvegicus albino (rat) tus norvegicus Sprague-Dawley (rat) assessed as increase in thermal-stimulus induced tail flick latency after 5 to 10 min; assay type: functional; conditions: for Emax: Rattus norvegicus, Sprague-Dawley albino, Tail, central
Rattus norvegicus [2] = test: Antinociceptive activity in icv dosed Rattus norvegicus albino (rat) tus norvegicus Sprague-Dawley (rat) assessed as maximal increase in paw withdrawal latency after 5 to 10 min by hot plate test; assay type: functional; conditions: for Emax: Rattus norvegicus, Sprague-Dawley albino, central
Rattus norvegicus [3] = test: Neurotoxicity in icv dosed Rattus norvegicus albino (rat) tus norvegicus Sprague-Dawley (rat) assessed as motor impairment; assay type: toxicity, organism-based; conditions: in vivo, icv_or_intrathecal
Rattus norvegicus [4] = test: Toxicity in icv dosed Rattus norvegicus albino (rat) tus norvegicus Sprague-Dawley (rat) assessed as behavioral changes; assay type: organism-based; conditions: in vivo, icv_or_intrathecal
Histamine H3 receptor [5] = target: Histamine H3 receptor (Homo sapiens, UniProt Q9Y5N1); test: Binding affinity to histamine H3 receptor (unknown origin)
Histamine H2 receptor = Histamine H2 receptor (Homo sapiens, UniProt P25021); test: Binding affinity to histamine H2 receptor (unknown origin)
Rattus norvegicus [6] = test: Antinociceptive activity in icv dosed Rattus norvegicus albino (rat) tus norvegicus Sprague-Dawley (rat) assessed as increase in thermal-stimulus induced tail flick latency; assay type: functional, organism-based; conditions: TDE = time-dependent effect
Rattus norvegicus [7] = test: Antinociceptive activity in icv dosed Rattus norvegicus albino (rat) tus norvegicus Sprague-Dawley (rat) assessed as maximal increase in paw withdrawal latency by hot plate test; assay type: functional, organism-based; conditions: TDE = time-dependent effect
Histamine H3 receptor [8] = target: Histamine H3 receptor (Cavia porcellus, UniProt Q9JI35); test: Binding affinity to histamine H3 receptor in Cavia porcellus (guinea pig) ileum; assay type: tissue-based
Rattus norvegicus [9] = test: Neurotoxicity in Rattus norvegicus albino (rat) tus norvegicus Sprague-Dawley (rat) assessed as motor impairment at 20 to 60 ug, icv; assay type: toxicity, organism-based; conditions: in vivo, icv_or_intrathecal
Rattus norvegicus [10] = test: Toxicity in Rattus norvegicus albino (rat) tus norvegicus Sprague-Dawley (rat) assessed as behavioral changes at 20 to 60 ug, icv; assay type: organism-based; conditions: in vivo, icv_or_intrathecal
Rattus norvegicus [11] = test: Antinociceptive activity in Rattus norvegicus albino (rat) tus norvegicus Sprague-Dawley (rat) assessed as increase in thermal-stimulus induced tail flick latency at 20 to 60 ug, icv; assay type: functional, organism-based; conditions: TDE = time-dependent effect
Rattus norvegicus [12] = test: Antinociceptive activity in Rattus norvegicus albino (rat) tus norvegicus Sprague-Dawley (rat) assessed as maximal increase in paw withdrawal latency at 20 to 60 ug, icv by hot plate test; assay type: functional, organism-based; conditions: TDE = time-dependent effect
Rattus norvegicus [13] = test: Antinociceptive activity in Rattus norvegicus albino (rat) tus norvegicus Sprague-Dawley (rat) assessed as increase in thermal-stimulus induced tail flick latency at 20 to 60 ug, icv after 30 to 60 min; assay type: functional, organism-based
Rattus norvegicus [14] = test: Antinociceptive activity in Rattus norvegicus albino (rat) tus norvegicus Sprague-Dawley (rat) assessed as maximal increase in paw withdrawal latency at 20 to 60 ug, icv after 30 to 60 min by hot plate test; assay type: functional, organism-based

Histamine H3 receptor (Homo sapiens, UniProt Q9Y5N1), sequence (Q9Y5N1 whole entry): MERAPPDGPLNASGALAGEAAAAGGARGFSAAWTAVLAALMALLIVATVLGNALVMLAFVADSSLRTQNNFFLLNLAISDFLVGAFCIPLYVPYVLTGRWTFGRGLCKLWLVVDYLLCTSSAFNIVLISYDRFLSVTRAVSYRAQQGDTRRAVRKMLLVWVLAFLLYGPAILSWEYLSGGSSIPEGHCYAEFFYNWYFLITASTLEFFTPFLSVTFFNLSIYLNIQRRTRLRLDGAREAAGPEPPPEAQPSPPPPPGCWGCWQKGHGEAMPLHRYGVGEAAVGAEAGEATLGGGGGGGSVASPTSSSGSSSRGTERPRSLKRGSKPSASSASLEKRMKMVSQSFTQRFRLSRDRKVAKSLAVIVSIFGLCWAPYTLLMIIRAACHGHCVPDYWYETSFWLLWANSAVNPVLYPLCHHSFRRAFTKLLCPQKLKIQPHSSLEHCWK
Histamine H3 receptor (Cavia porcellus, UniProt Q9JI35), sequence (Q9JI35 whole entry): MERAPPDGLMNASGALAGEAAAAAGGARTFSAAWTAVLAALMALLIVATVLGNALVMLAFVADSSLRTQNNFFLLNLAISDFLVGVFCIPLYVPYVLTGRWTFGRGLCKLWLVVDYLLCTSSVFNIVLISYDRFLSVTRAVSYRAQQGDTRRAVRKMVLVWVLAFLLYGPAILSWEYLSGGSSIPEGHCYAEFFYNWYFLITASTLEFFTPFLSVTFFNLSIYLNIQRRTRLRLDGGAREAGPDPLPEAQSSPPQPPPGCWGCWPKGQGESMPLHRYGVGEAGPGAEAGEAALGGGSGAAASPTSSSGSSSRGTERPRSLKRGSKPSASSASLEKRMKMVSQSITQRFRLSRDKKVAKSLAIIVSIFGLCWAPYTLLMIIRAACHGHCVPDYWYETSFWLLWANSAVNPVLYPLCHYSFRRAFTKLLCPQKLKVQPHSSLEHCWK
Histamine H2 receptor, sequence (P25021 whole entry): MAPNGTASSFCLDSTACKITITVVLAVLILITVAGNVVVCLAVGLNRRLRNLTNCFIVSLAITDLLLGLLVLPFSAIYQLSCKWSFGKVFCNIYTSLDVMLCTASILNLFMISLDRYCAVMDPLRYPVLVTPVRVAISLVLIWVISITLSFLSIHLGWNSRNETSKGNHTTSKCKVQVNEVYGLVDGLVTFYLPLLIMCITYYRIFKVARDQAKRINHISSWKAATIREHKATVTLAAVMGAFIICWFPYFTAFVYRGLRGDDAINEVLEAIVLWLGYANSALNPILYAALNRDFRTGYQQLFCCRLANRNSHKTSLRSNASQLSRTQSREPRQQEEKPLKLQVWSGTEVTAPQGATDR

Row | SMILES | ED50 (Rattus norvegicus [1]) [nmol] | ED50 (Rattus norvegicus [2]) [nmol] | other results
1 | O=C(NCCCCc1c[nH]cn1)Nc1ccccc1 | 65 | 65 | 
2 | c1ccc(NCCCOc2cccc(CN3CCCCC3)c2)cc1 [SKF95299] | >308 | >308 | 
3 | S=C(NCCCCc1c[nH]cn1)Nc1ccccc1 | 81 | 81 | 
4 | CNC(=S)N1CCC(c2c[nH]cn2)CC1 | 201 | 201 | 
5 | c1cc(CN2CCCCC2)cc(OCCCNc2nc3ccccc3s2)c1 [ZOLANTIDINE] | >262 | >262 | 
6 | CN/C(=C/[N+](=O)[O-])NCCCn1ccnc1 |  |  | Activity (Rattus norvegicus [3]): Non-toxic; Activity (Rattus norvegicus [4]): Non-toxic
7 | C/N=C(\S)NCCCn1ccnc1 | >504 | >504 | 
8 | CN/C(=N\C#N)NCCSCc1ccccc1 | >403 | >403 | 
9 | CNC(=S)NCCCCc1cnc[nH]1 [BURIMAMIDE] |  |  | pKd (Histamine H3 receptor [5]): 7.00; pKd (Histamine H2 receptor): 5.11; Activity (Rattus norvegicus [3]): Non-toxic; Activity (Rattus norvegicus [4]): Non-toxic
10 | CNC(=S)NCCSCc1ccc(CN(C)C)o1 | 117 | 117 | Activity (Rattus norvegicus [3]): Non-toxic; Activity (Rattus norvegicus [4]): Non-toxic; Activity (Rattus norvegicus [6]): tde; Activity (Rattus norvegicus [7]): tde
11 | CN/C(=N\CCSCc1nc[nH]c1C)NC#N [CIMETIDINE] | 464 | 464 | Activity (Rattus norvegicus [6]): tde; Activity (Rattus norvegicus [1]): Dose-dependent effect; Activity (Rattus norvegicus [7]): tde; Activity (Rattus norvegicus [2]): Dose-dependent effect
12 | S=C(NC1CCCCC1)N1CCC(c2cnc[nH]2)CC1 [THIOPERAMIDE] | >342 | >342 | 
13 | CN/C(=N/CCSCc1nc[nH]c1C)NC#N [CIMETIDINE] |  |  | Activity (Rattus norvegicus [3]): Non-toxic; Activity (Rattus norvegicus [4]): Non-toxic
14 | CN/C(=N\C#N)NCCCc1c[nH]cn1 [IMPROGAN] | 330 | 330 | pKd (Histamine H3 receptor [8]): 5.30; Activity (Rattus norvegicus [3]): Non-toxic; Activity (Rattus norvegicus [4]): Non-toxic; Activity (Rattus norvegicus [6]): tde; Activity (Rattus norvegicus [1]): Dose-dependent effect; Activity (Rattus norvegicus [7]): tde; Activity (Rattus norvegicus [2]): Dose-dependent effect
15 | C/N=C(\S)NCCCc1c[nH]cn1 [NORBURIMAMIDE] | 217 | 217 | 
16 | S=C(NCCCCCCc1c[nH]cn1)Nc1ccccc1 |  |  | Emax (Rattus norvegicus [1]): < 100%; Emax (Rattus norvegicus [2]): < 100%

Row | SMILES | ED50 (Rattus norvegicus [1]) [nmol] | ED50 (Rattus norvegicus [2]) [nmol] | other results
17 | CN/C(=C\[N+](=O)[O-])NCCCCc1c[nH]cn1 | 104 | 104 | 
18 | S=C(NCCCCc1c[nH]cn1)NCCc1ccccc1 | 80 | 80 | 
19 | S=C(NCCCCc1c[nH]cn1)NCc1ccccc1 | 105 | 105 | 
20 | C/N=C(\S)NCCCCc1c[nH]cn1 [BURIMAMIDE] | 184 | 184 | Activity (Rattus norvegicus [6]): tde; Activity (Rattus norvegicus [1]): Dose-dependent effect; Activity (Rattus norvegicus [7]): tde; Activity (Rattus norvegicus [2]): Dose-dependent effect
21 | C/N=C(/NC#N)NCCSCc1csc(NC(=N)N)n1 [TIOTIDINE] | >320 | >320 | 
22 | CN/C(=N\C#N)NCCSCc1ccccn1 | >602 | >602 | 
23 | S=C(NCCc1c[nH]cn1)Nc1ccccc1 | 89 | 89 | 
24 | NC(=NCc1ccc(Cl)cc1)SCCCc1cnc[nH]1 [CLOBENPROPIT] |  |  | Activity (Rattus norvegicus [3]): Non-toxic; Activity (Rattus norvegicus [4]): Non-toxic
25 | CNC(=S)NCCSCc1[nH]cnc1C [METIAMIDE] | 370 | 370 | 
26 | S=C(Nc1ccccc1)N1CCC(c2c[nH]cn2)CC1 |  |  | Emax (Rattus norvegicus [1]): < 100%; Emax (Rattus norvegicus [2]): < 100%
27 | C/N=C(\S)NCCc1c[nH]cn1 | 85 | 85 | 
28 | CNC(=C[N+](=O)[O-])NCCSCc1ccc(CN(C)C)o1 [RANITIDINE] | 109 | 109 | 
29 | C/N=C(\S)NCCCCCCc1c[nH]cn1 | 87 | 87 | 
30 | S=C(NCCCCc1c[nH]cn1)NC1CCCCC1 | 285 | 285 | 
31 | CN/C(=N\C#N)NCCSCc1ccc(CN(C)C)o1 | 67 | 67 | Activity (Rattus norvegicus [9]): Non-toxic; Activity (Rattus norvegicus [10]): Non-toxic; Activity (Rattus norvegicus [11]): tde; Activity (Rattus norvegicus [12]): tde; Activity (Rattus norvegicus [13]): inactive; Activity (Rattus norvegicus [14]): inactive; Activity (Rattus norvegicus [1]): Dose-dependent effect; Activity (Rattus norvegicus [2]): Dose-dependent effect

— ChEMBL document CHEMBL3044998, “Improgan-like Analgesics: A Family of Compounds Derived From Histamine Anatgonists” (Med Chem Res, 2004)
